Experimental data published in patent US20240269139A1, “COMPOUNDS FOR TARGETED PROTEIN DEGRADATION OF KINASES” (DANA-FARBER CANCER INSTITUTE, INC., priority 2020, published 2024).
Where two headings read alike, the source gives them in different places.

What was measured:
[1] = biological target: protein kinases (human kinome) (Homo sapiens, UniProt P11802); assay type: cell-based
[2] = biological target: protein kinases (human kinome) (Homo sapiens, UniProt Q00534); assay type: cell-based; settings: for logFC CDK6: CDK6 (Q00534), direction down; for logFC of CDK6 (Q00534): down
protein kinases (human kinome) (Homo sapiens, UniProt Q00534), sequence (Q00534 whole entry): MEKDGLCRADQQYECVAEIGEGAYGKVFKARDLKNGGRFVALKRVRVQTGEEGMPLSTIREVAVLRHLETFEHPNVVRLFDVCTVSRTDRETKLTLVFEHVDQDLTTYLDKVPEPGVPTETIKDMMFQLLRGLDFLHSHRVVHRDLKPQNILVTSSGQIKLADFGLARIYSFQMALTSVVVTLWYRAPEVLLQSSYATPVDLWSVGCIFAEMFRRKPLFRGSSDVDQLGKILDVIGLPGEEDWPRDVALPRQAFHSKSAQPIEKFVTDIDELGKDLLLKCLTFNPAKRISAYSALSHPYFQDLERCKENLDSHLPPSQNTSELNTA

[3] = biological target: protein kinases (human kinome) (Homo sapiens, UniProt Q2M2I8); assay type: cell-based
protein kinases (human kinome) (Homo sapiens, UniProt Q2M2I8), sequence (Q2M2I8 whole entry): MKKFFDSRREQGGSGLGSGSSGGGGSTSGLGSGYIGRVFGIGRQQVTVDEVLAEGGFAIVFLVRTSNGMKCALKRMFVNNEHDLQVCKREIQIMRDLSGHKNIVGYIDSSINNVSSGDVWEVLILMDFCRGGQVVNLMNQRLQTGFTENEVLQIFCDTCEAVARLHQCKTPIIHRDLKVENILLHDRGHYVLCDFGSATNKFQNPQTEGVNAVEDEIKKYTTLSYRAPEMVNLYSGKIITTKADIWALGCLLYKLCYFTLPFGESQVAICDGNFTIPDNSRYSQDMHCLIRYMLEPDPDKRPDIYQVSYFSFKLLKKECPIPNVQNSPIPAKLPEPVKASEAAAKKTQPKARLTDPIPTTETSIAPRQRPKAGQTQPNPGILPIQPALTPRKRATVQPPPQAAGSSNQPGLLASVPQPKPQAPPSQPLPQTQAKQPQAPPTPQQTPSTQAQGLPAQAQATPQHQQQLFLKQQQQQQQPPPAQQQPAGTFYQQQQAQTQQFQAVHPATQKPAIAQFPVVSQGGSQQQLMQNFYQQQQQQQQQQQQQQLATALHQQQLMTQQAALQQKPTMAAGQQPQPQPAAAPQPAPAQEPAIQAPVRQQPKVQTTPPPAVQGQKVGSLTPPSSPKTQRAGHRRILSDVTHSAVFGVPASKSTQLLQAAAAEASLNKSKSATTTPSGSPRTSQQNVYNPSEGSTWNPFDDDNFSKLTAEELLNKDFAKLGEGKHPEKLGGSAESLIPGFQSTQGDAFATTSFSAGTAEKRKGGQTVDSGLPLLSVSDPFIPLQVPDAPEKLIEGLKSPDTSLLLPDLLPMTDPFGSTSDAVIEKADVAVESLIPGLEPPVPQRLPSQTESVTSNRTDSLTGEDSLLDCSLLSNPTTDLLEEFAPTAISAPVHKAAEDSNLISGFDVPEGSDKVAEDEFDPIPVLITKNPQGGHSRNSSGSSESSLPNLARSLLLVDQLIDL

[4] = biological target: protein kinases (human kinome) (Homo sapiens, UniProt P30291); assay type: cell-based; settings: for logFC of WEE1: WEE1 P30291-1
protein kinases (human kinome) (Homo sapiens, UniProt P30291), sequence (P30291 whole entry): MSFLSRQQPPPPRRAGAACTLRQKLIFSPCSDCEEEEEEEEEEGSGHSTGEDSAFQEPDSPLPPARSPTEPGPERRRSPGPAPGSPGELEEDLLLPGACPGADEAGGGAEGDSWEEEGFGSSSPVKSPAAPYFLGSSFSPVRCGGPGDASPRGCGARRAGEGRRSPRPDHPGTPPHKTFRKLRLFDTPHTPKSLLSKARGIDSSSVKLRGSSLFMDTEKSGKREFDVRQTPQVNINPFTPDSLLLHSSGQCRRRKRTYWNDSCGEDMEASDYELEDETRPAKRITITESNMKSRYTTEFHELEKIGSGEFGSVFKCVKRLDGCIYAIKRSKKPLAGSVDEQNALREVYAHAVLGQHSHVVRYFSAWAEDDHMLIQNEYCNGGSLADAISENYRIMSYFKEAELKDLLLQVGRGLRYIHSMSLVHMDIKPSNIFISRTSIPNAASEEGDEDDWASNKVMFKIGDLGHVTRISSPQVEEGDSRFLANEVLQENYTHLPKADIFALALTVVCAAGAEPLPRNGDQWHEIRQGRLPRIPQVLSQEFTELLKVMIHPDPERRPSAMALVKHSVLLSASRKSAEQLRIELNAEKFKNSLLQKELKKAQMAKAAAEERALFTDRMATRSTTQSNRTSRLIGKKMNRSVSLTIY

[5] = biological target: protein kinases (human kinome) (Homo sapiens, UniProt Q9H0K1); assay type: cell-based; settings: for logFC of SIK2: Accession Q9H0K1; for logFC SIK2 (Q9H0K1): direction of change down
protein kinases (human kinome) (Homo sapiens, UniProt Q9H0K1), sequence (Q9H0K1 whole entry): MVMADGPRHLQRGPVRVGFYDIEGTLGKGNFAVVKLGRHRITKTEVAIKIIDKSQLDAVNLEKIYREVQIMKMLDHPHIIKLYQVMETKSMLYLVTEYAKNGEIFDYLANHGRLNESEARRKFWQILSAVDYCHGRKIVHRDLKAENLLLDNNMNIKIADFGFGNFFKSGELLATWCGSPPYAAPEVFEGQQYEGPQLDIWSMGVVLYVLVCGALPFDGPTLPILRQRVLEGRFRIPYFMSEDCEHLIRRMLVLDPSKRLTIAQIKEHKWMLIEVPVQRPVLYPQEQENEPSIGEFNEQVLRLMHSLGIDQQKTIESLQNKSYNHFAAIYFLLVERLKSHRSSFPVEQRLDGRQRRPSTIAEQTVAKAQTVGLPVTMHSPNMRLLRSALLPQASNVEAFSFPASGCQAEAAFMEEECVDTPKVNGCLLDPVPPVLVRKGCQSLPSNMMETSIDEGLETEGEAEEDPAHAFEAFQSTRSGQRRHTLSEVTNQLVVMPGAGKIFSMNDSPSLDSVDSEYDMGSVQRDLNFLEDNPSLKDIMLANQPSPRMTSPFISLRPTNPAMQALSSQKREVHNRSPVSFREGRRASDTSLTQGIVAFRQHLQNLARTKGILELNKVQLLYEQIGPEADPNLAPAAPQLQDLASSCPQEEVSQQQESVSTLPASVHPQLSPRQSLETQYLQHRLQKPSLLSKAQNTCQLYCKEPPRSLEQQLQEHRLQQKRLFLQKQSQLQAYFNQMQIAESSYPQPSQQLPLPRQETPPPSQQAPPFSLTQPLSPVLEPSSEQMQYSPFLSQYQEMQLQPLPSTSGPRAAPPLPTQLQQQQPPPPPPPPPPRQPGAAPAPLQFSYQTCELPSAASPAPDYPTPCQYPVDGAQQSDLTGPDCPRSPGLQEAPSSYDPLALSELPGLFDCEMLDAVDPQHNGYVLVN

[6] = biological target: T1, protein kinases (human kinome) (Homo sapiens, UniProt O14965); assay type: cell-based
T1 sequence (O14965 1-403): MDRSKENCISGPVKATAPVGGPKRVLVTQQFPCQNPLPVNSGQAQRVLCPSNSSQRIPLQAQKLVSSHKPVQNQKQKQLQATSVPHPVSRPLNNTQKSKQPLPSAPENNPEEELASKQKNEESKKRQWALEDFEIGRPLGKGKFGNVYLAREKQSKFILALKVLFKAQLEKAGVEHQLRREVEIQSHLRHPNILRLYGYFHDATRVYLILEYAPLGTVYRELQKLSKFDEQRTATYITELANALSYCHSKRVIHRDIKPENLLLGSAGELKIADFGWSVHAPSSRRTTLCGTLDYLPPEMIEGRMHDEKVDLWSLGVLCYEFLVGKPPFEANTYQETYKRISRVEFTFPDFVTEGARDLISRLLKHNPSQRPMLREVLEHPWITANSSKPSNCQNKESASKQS

[7] = biological target: extended human kinome (kinase-like proteins) (Homo sapiens, UniProt Q9UIJ7); experiment: Whole cell quantitative proteomics: extended kinome hits; settings: experiment wp160, 1 hr
extended human kinome (kinase-like proteins) (Homo sapiens, UniProt Q9UIJ7), sequence (Q9UIJ7 whole entry): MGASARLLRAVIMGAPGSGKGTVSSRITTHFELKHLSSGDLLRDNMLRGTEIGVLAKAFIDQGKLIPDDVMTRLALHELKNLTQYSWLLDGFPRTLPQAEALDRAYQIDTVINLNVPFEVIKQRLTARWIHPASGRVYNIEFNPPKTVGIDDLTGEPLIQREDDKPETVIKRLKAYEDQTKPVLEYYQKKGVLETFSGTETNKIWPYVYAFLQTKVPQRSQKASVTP
Procedure: (§1) Whole cell multiplexed quantitative proteomics was employed to measure changes in abundance of the proteome in response to treatment with each of the kinase degrader molecules relative to DMSO (Table 1, Appendix I).
(§2) Cells were treated with DMSO (biological triplicate) or degrader at indicated dose and time and cells were harvested by centrifugation. […] Precipitated protein was resuspended in 4 M Urea, 50 mM HEPES pH 7.4, followed by dilution to 1 M urea with the addition of 200 mM EPPS, pH 8. Proteins were first digested with LysC (1:50: enzyme:protein) for 12 hours at room temperature. The LysC digestion was diluted to 0.5 M Urea with 200 mM EPPS pH 8 followed by digestion with trypsin (1:50; enzyme:protein) for 6 hours at 37° C. Tandem mass tag (TMT) reagents (Thermo Fisher Scientific) were dissolved in anhydrous acetonitrile (ACN) according to manufacturer's instructions. […] The 10, 11, or 16-plex labeling reactions were performed for 1.5 hours at room temperature and the reaction quenched by the addition of hydroxylamine to a final concentration of 0.3% for 15 minutes at room temperature. The sample channels were combined at a 1:1 ratio, desalted using C18 solid phase extraction cartridges (Waters®) and analyzed by LC-MS for channel ratio comparison. Samples were then combined using the adjusted volumes determined in the channel ratio analysis and dried down in a speed vacuum. The combined sample was then resuspended in 1% formic acid, and acidified (pH 2-3) before being subjected to desalting with C18 SPE (Sep-Pak®, Waters®). Samples were then offline fractionated into 96 fractions by high pH reverse-phase HPLC (Agilent® LC1260) through an aeris peptide xb-c18 column (Phenomenex®) with mobile phase A containing 5% acetonitrile and 10 mM NH4HCO3 in LC-MS grade H2O, and mobile phase B containing 90% acetonitrile and 10 mM NH4HCO3 in LC-MS grade H2O (both pH 8.0). The 96 resulting fractions were then pooled in a non-continuous manner into 24 fractions and desalted using C18 solid phase extraction plates (SOLA®, Thermo Fisher Scientific) followed by subsequent mass spectrometry analysis.
(§3) Data were collected using an Orbitrap Fusion™ Lumos™ mass spectrometer (Thermo Fisher Scientific, San Jose, CA, USA) coupled with a Proxeon EASY-nLC™ 1200 LC pump (Thermo Fisher Scientific) or an Orbitrap Eclipse™ Tribrid™ mass spectrometer (Thermo Fisher Scientific, San Jose, CA, USA) coupled with an UltiMate™ 3000 RSLCnano System. Peptides were separated on an EasySpray™ ES803a/ES803a.rev2 75 μm inner diameter microcapillary column (ThermoFisher Scientific).
(§4) Data dependent MS2 spectra were acquired in the ion trap with a normalized collision energy (NCE) set at 35%, AGC target set to 1.8×10^4 and a maximum injection time of 120 ms. MS3 scans were acquired in the Orbitrap with HCD collision energy set to 55%. AGC target set to 2×10^5, maximum injection time of 150 ms, resolution at 50,000 and with a maximum synchronous precursor selection (SPS) precursors set to 10.
(§5) Proteome Discoverer™ 2.1, 2.2 or 2.4 (Thermo Fisher Scientific) was used for .RAW file processing and controlling peptide and protein level false discovery rates, assembling proteins from peptides, and protein quantification from peptides.

[8] = biological target: extended human kinome (kinase-like proteins) (Homo sapiens, UniProt Q16875); experiment: as above; settings: Accession Q16875, experiment wp133
extended human kinome (kinase-like proteins) (Homo sapiens, UniProt Q16875), sequence (Q16875 whole entry): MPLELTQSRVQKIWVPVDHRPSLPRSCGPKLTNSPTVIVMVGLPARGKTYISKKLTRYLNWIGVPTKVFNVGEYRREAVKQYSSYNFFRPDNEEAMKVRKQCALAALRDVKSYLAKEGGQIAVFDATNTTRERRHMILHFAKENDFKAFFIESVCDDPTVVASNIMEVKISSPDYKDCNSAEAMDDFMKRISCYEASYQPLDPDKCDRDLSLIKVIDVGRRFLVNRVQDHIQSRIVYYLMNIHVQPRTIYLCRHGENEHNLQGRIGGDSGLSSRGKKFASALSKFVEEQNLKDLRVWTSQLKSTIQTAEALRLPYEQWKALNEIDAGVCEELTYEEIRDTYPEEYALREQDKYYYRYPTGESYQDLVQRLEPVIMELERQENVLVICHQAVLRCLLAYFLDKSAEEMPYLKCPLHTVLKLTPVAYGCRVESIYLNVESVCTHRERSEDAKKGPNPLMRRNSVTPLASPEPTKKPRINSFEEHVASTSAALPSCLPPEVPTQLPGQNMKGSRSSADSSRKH
Procedure: as §1, §2, §3, §4, §5

[9] = biological target: extended human kinome (kinase-like proteins) (Homo sapiens, UniProt P27144); experiment: as above; settings: experiment wp160, 1 hr
extended human kinome (kinase-like proteins) (Homo sapiens, UniProt P27144), sequence (P27144 whole entry): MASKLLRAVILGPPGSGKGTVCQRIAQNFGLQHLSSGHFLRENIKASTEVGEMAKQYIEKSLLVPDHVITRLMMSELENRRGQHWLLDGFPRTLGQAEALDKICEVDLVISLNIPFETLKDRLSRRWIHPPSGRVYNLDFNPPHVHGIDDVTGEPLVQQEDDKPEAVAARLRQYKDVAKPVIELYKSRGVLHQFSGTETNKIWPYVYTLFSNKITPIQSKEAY
Procedure: as §1, §2, §3, §4, §5

[10] = biological target: T2, extended human kinome (kinase-like proteins) (Homo sapiens, UniProt Q7L8L6); experiment: as above; settings: Accession Q7L8L6; experiment wp160; 1 hr
T2 sequence (Q7L8L6 28-764): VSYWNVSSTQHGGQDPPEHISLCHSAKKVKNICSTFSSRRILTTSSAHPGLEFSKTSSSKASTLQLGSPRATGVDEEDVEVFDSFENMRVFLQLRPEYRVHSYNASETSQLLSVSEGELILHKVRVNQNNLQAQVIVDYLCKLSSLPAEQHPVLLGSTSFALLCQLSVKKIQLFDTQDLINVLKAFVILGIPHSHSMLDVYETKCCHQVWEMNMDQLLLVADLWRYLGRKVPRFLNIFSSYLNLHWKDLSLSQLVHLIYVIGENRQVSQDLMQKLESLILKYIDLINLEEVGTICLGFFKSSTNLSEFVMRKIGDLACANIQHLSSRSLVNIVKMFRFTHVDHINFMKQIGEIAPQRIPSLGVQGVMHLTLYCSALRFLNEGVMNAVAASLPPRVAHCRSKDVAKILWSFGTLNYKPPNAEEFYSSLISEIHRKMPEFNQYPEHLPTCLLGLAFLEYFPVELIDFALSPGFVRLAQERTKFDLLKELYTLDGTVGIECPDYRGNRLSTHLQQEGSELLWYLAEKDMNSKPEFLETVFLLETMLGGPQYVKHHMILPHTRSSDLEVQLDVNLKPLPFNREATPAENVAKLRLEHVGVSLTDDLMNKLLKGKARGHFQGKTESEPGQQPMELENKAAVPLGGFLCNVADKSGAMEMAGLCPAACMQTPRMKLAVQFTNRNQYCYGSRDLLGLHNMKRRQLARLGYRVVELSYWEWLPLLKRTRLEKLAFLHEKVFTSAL
Procedure: as §1, §2, §3, §4, §5

protein kinases (human kinome) (Homo sapiens, UniProt P11802), sequence (P11802 whole entry): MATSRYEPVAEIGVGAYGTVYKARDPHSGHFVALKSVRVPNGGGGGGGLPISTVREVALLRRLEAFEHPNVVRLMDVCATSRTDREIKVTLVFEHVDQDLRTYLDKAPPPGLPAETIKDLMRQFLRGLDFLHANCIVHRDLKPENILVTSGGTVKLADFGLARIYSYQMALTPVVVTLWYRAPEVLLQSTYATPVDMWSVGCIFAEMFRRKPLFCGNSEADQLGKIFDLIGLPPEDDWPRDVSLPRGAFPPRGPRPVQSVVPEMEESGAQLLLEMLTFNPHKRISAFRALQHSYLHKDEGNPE

## CC(C)S(=O)(=O)c1ccccc1Nc1nc(Nc2ccc(N3CCN(CCOCCNC(=O)CNc4cccc5c4C(=O)N(C4CCC(=O)NC4=O)C5=O)CC3)cc2)ncc1Cl (stereo not shown) [SK.3.91]
[1]; Experiment wp160, 2 hr
  logFC CDK4 (P11802): −0.9104
[1]; experiment wp016
  logFC CDK4 (P11802): −1.161
[1]; experiment wp016, 1 uM
  logFC CDK4 (P11802): −1.429
[1]; experiment wp103
  logFC CDK4 (P11802): −1.029
[1]; experiment wp105
  logFC CDK4 (P11802): −0.7995
[1]; experiment wp107
  logFC CDK4 (P11802): −1.272
[1]; experiment wp114
  logFC CDK4 (P11802): −0.5605
[1]; experiment wp133, 2 hr
  logFC CDK4 (P11802): −0.7484
[1]; experiment wp133, 4 hr
  logFC CDK4 (P11802): −1.292
[1]; experiment wp160, 1 hr
  logFC CDK4 (P11802): −0.4329
[1]; experiment wp160, 4 hr
  logFC CDK4 (P11802): −1.353
[2]; experiment wp016
  logFC CDK6: −0.8832
[2]; experiment wp016, 1 uM
  logFC CDK6: −1.149
[2]; experiment wp103
  logFC CDK6: −0.9349
[2]; experiment wp105
  logFC CDK6: −0.5421
[2]; experiment wp107
  logFC CDK6: −1.012
[2]; experiment wp133, 1 hr
  logFC CDK6: −0.3542
[2]; experiment wp133, 2 hr
  logFC CDK6: −0.6404
[2]; experiment wp133, 4 hr
  logFC CDK6: −1.05
[2]; experiment wp160, 1 hr
  logFC CDK6: −0.3255
[2]; experiment wp160, 2 hr
  logFC CDK6: −0.5948
[2]; experiment wp160, 4 hr
  logFC CDK6: −1.133
[2]; Experiment wp016, 1 uM
  logFC of CDK6 (Q00534): −1.149
[2]; Experiment wp016
  logFC of CDK6 (Q00534): −0.8832
[2]; Experiment wp103
  logFC of CDK6 (Q00534): −0.9349
[2]; Experiment wp105
  logFC of CDK6 (Q00534): −0.5421
[2]; Experiment wp107
  logFC of CDK6 (Q00534): −1.012
[2]; Experiment wp133, 1 hr
  logFC of CDK6 (Q00534): −0.3542
[2]; Experiment wp133, 2 hr
  logFC of CDK6 (Q00534): −0.6404
[2]; Experiment wp133, 4 hr
  logFC of CDK6 (Q00534): −1.05
[2]; Experiment wp160, 1 hr
  logFC of CDK6 (Q00534): −0.3255
[2]; Experiment wp160, 2 hr
  logFC of CDK6 (Q00534): −0.5948
[2]; Experiment wp160, 4 hr
  logFC of CDK6 (Q00534): −1.133
[3]; AAK1 (Q2M218-1), experiment wp016, 1 uM, down
  logFC AAK1: −1.114
[3]; AAK1 (Q2M218-1), experiment wp016, down
  logFC AAK1: −1.364
[3]; AAK1 (Q2M218-1), experiment wp103, down
  logFC AAK1: −0.7763
[3]; AAK1 (Q2M218-1), experiment wp105, down
  logFC AAK1: −1.575
[3]; AAK1 (Q2M218-1), experiment wp107, down
  logFC AAK1: −1.059
[3]; AAK1 (Q2M218-1), experiment wp114, down
  logFC AAK1: −0.8221
[3]; AAK1 (Q2M218-1), experiment wp133, 2 hr, down
  logFC AAK1: −0.5506
[3]; AAK1 (Q2M218-1), experiment wp133, 4 hr, down
  logFC AAK1: −1.105
[3]; AAK1 (Q2M218-1), experiment wp160, 2 hr, down
  logFC AAK1: −0.5153
[3]; AAK1 (Q2M218-1), experiment wp160, 4 hr, down
  logFC AAK1: −1.008
[3]; AAK1 (Q2M218-1), experiment wp172, down
  logFC AAK1: −0.9755
[3]; AAK1, accession Q2M218-1, experiment wp016, 1 uM, direction of change down
  logFC AAK1: −1.114
[3]; AAK1, accession Q2M218-1, experiment wp016, direction of change down
  logFC AAK1: −1.364
[3]; AAK1, accession Q2M218-1, experiment wp103, direction of change down
  logFC AAK1: −0.7763
[3]; AAK1, accession Q2M218-1, experiment wp105, direction of change down
  logFC AAK1: −1.575
[3]; AAK1, accession Q2M218-1, experiment wp107, direction of change down
  logFC AAK1: −1.059
[3]; AAK1, accession Q2M218-1, experiment wp114, direction of change down
  logFC AAK1: −0.8221
[3]; AAK1, accession Q2M218-1, experiment wp133, 2 hr, direction of change down
  logFC AAK1: −0.5506
[3]; AAK1, accession Q2M218-1, experiment wp133, 4 hr, direction of change down
  logFC AAK1: −1.105
[3]; AAK1, accession Q2M218-1, experiment wp160, 2 hr, direction of change down
  logFC AAK1: −0.5153
[3]; AAK1, accession Q2M218-1, experiment wp160, 4 hr, direction of change down
  logFC AAK1: −1.008
[3]; AAK1, accession Q2M218-1, experiment wp172, direction of change down
  logFC AAK1: −0.9755
[4]; Experiment wp160, 2 hr
  logFC WEE1 (P30291-1): −1.201
[4]; Experiment wp172
  logFC WEE1 (P30291-1): −0.6853
[4]; experiment wp103
  logFC of WEE1: −1.371
  logFC WEE1 (P30291-1): −1.371
[4]; experiment wp105
  logFC of WEE1: −1.229
  logFC WEE1 (P30291-1): −1.229
[4]; experiment wp107
  logFC of WEE1: −2.329
  logFC WEE1 (P30291-1): −2.329
[4]; experiment wp133, 1 hr
  logFC of WEE1: −0.4866
  logFC WEE1 (P30291-1): −0.4866
[4]; experiment wp133, 2 hr
  logFC of WEE1: −1.21
  logFC WEE1 (P30291-1): −1.21
[4]; experiment wp133, 4 hr
  logFC of WEE1: −2.314
  logFC WEE1 (P30291-1): −2.314
[4]; experiment wp160, 1 hr
  logFC of WEE1: −0.5503
  logFC WEE1 (P30291-1): −0.5503
[4]; experiment wp160, 2 hr
  logFC of WEE1: −1.201
[4]; experiment wp160, 4 hr
  logFC of WEE1: −1.994
  logFC WEE1 (P30291-1): −1.994
[4]; experiment wp172
  logFC of WEE1: −0.6853
[4]; experiment wp016
  logFC WEE1 (P30291-1): −1.278
[4]; experiment wp016, 1 uM
  logFC WEE1 (P30291-1): −2.684
[5]; experiment wp105
  logFC of SIK2: −0.5386
[5]; experiment wp107
  logFC of SIK2: −1.568
  logFC SIK2 (Q9H0K1): −1.568
[5]; experiment wp114
  logFC of SIK2: −0.5757
[5]; experiment wp133, 2 hr
  logFC of SIK2: −0.4938
  logFC SIK2 (Q9H0K1): −0.4938
[5]; experiment wp133, 4 hr
  logFC of SIK2: −1.035
  logFC SIK2 (Q9H0K1): −1.035
[5]; experiment wp160, 2 hr
  logFC of SIK2: −0.5413
  logFC SIK2 (Q9H0K1): −0.5413
[5]; experiment wp160, 4 hr
  logFC of SIK2: −0.8364
  logFC SIK2 (Q9H0K1): −0.8364
[5]; Experiment wp105
  logFC SIK2 (Q9H0K1): −0.5386
[5]; Experiment wp114
  logFC SIK2 (Q9H0K1): −0.5757
[6]; Experiment wp160, 2 hr
  logFC AURKA (O14965): −0.8456
[6]; Experiment wp172
  logFC AURKA (O14965): −2.048
[6]; experiment wp016
  logFC AURKA (O14965): −1.908
[6]; experiment wp016, 1 uM
  logFC AURKA (O14965): −3.024
[6]; experiment wp103
  logFC AURKA (O14965): −1.587
[6]; experiment wp105
  logFC AURKA (O14965): −1.837
[6]; experiment wp107
  logFC AURKA (O14965): −3.069
[6]; experiment wp114
  logFC AURKA (O14965): −1.228
[6]; experiment wp133, 1 hr
  logFC AURKA (O14965): −1.329
[6]; experiment wp133, 2 hr
  logFC AURKA (O14965): −2.092
[6]; experiment wp133, 4 hr
  logFC AURKA (O14965): −3.745
[6]; experiment wp160, 1 hr
  logFC AURKA (O14965): −0.547
[6]; experiment wp160, 4 hr
  logFC AURKA (O14965): −1.391
[7]
  logFC AK3 (Q9UIJ7-1): −0.7434
[8]; 2 hr
  logFC PFKFB3: −0.3539
[8]; 4 hr
  logFC PFKFB3: −0.6035
[9]
  logFC AK4 (P27144): −0.8232
[10]
  logFC FASTKD5: −0.8306
